Measured values published in ChEMBL document CHEMBL1201862, “PubChem BioAssay data set” (2004).
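These data come from cells grown in 96-well plates and exposed to compound for 48 hours at five concentrations. Here, GI50 denotes the concentration required for 50% inhibition of growth.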 Activity calls are given as the source filed them. Cut-off read from the data, not from the text of the source: active = GI50 up to about 1.1 µM and inactive = higher.

Tests used:
Test in all cases: DTP human tumour cell line panel, 48 h
[1] = test system: LXFL 529
[2] = test system: KM12
[3] = test system: SNB-75
[4] = test system: NCI-H226
[5] = test system: HOP-92
[6] = test system: K562
[7] = test system: M14
[8] = test system: LOX IMVI
[9] = test system: IGROV-1
[10] = test system: KM-20L2
[11] = test system: OVCAR-4
[12] = test system: ACHN
[13] = test system: NCI-H23
[14] = test system: SK-OV-3
[15] = test system: OVCAR-8
[16] = test system: SF-268
[17] = test system: A549
[18] = test system: UACC-62
[19] = test system: OVCAR-3
[20] = test system: SW-620
[21] = test system: M19-MEL
[22] = test system: 786-0
[23] = test system: DLD-1
[24] = test system: NCI-H460
[25] = test system: UO-31
[26] = test system: HT-29
[27] = test system: SF-539
[28] = test system: SF-295
[29] = test system: HOP-62
[30] = test system: OVCAR-5
[31] = test system: TK-10
[32] = test system: UACC-257
[33] = test system: MOLT-4
[34] = test system: COLO 205
[35] = test system: SK-MEL-28
[36] = test system: U-251
[37] = test system: SNB-19
[38] = test system: SNB-78
[39] = test system: NCI-H522
[40] = test system: HCT-116
[41] = test system: Hs-578T
[42] = test system: NCI/ADR-RES
[43] = test system: SN12C
[44] = test system: SK-MEL-5
[45] = test system: HCC 2998
[46] = test system: MCF7
[47] = test system: Malme-3M
[48] = test system: RPMI-8226
[49] = test system: BT-549
[50] = test system: RXF 393
[51] = test system: MDA-N
[52] = test system: A498
[53] = test system: MDA-MB-435
[54] = test system: SR
[55] = test system: PC-3
[56] = test system: CCRF-CEM
[57] = test system: MDA-MB-231
[58] = test system: HL-60
[59] = test system: SK-MEL-2
[60] = test system: EKVX
[61] = test system: HCT-15
[62] = test system: DU-145
[63] = test system: T47D
[64] = test system: CAKI-1

Measured: GI50

Oc1ccccc1-c1nnc(S)n1/N=C/c1ccc(-c2ccc(Br)cc2)o1
inactive: [1] 22 µM | [2] 34.7 µM | [3] 32.7 µM | [4] 22.9 µM | [5] 18.4 µM | [6] 32.1 µM | [7] 41.7 µM | [8] 23.7 µM | [9] 29.2 µM | [10] 35.5 µM | [11] 15.6 µM | [12] 29.6 µM | [13] 20.5 µM | [14] 31 µM | [15] 34 µM | [16] 40.3 µM | [17] 48.1 µM | [18] 13.1 µM | [19] 24.2 µM | [20] 38.6 µM | [21] 42.5 µM | [22] 39.2 µM | [23] 34 µM | [24] 95.9 µM | [25] 28 µM | [26] 51.3 µM | [27] 33 µM | [28] 60.4 µM | [29] 29.9 µM | [30] > 100 µM | [31] 15.2 µM | [32] 24.3 µM | [33] 25.4 µM | [34] 39.6 µM | [35] 56.5 µM | [36] 25.9 µM | [37] 24.4 µM | [38] 23.6 µM | [39] 60.4 µM | [40] 33.7 µM

CC(=O)OCC1OC(N2C(c3ccccc3)=CC(c3ccco3)C(C#N)=C2S)C(OC(C)=O)C(OC(C)=O)C1OC(C)=O (centres undefined)
> 100 µM: [61]
inactive: [41] 2.17 µM | [2] 15.3 µM | [3] 2.55 µM | [42] 4.78 µM | [4] 6.71 µM | [5] 6.22 µM | [6] 4.25 µM | [7] 4.65 µM | [8] 5.74 µM | [9] 27.4 µM | [43] 4.22 µM | [44] 3.01 µM | [11] 3.33 µM | [12] 7.85 µM | [45] 14.8 µM | [46] 25.5 µM | [13] 5.79 µM | [47] 3.04 µM | [14] 21.7 µM | [48] 9.1 µM | [49] 3.59 µM | [15] 2.83 µM | [50] 4.06 µM | [16] 4.63 µM | [17] 9.44 µM | [18] 13.6 µM | [19] 5.75 µM | [20] 1.36 µM | [51] 11.3 µM | [52] 15.2 µM | [53] 8.11 µM | [54] 7.85 µM | [22] 2.03 µM | [55] 11.5 µM | [24] 14.7 µM | [25] 9.23 µM | [56] 12.6 µM | [26] 5.94 µM | [27] 2.06 µM | [28] 14.4 µM | [29] 6.27 µM | [30] 6.9 µM | [57] 3.13 µM | [58] 10.4 µM | [59] 28.8 µM | [31] 18.7 µM | [60] > 29 µM | [32] > 32.1 µM | [33] > 22.2 µM | [34] 3 µM | [35] 8.79 µM | [62] 19.7 µM | [36] 2.54 µM | [63] 30.4 µM | [64] 14.7 µM | [37] 11.9 µM | [39] 16.6 µM | [40] 3.18 µM
